From ChEMBL document CHEMBL2424561, “Discovery of new antitubercular agents by combining pyrazoline and benzoxazole pharmacophores: design, synthesis and insights into the binding interactions” (2013)
Converted amounts (≈) assume the structure as drawn.

Test system: Mycobacterium tuberculosis
Assay: Antitubercular activity against Mycobacterium tuberculosis H37Rv after 6 weeks
Type: functional

Compound	MIC
NNC(=O)c1ccncc1 [ISONIAZID]	0.625 µg/mL (≈ 4.56 µM)
CC(=O)N1N=C(c2ccccc2Br)CC1c1cc(N)c(O)c(Cl)c1 (stereo not given)	12.5 µg/mL (≈ 30.6 µM)
CC(=O)N1N=C(c2ccccc2)CC1c1ccc2oc(N)nc2c1 (stereo not given)	25 µg/mL (≈ 78 µM)
COc1cc(C2CC(c3ccccc3Br)=NN2C(C)=O)cc(N)c1O (stereo not given)	12.5 µg/mL (≈ 30.9 µM)
COc1cc(C2CC(c3ccccc3)=NN2C(C)=O)cc2nc(S)oc12 (stereo not given)	6.25 µg/mL (≈ 17 µM)
CC(=O)N1N=C(c2ccccc2)CC1c1cc(Cl)c2oc(N)nc2c1 (stereo not given)	25 µg/mL (≈ 70.5 µM)
COc1cc(C2CC(c3ccc(F)cc3)=NN2C(C)=O)cc2nc(N)oc12 (stereo not given)	6.25 µg/mL (≈ 17 µM)
CC(=O)N1N=C(c2ccccc2)CC1c1cc(Cl)c2oc(S)nc2c1 (stereo not given)	1.25 µg/mL (≈ 3.36 µM)
CC(=O)N1N=C(c2ccccc2Br)CC1c1ccc2oc(S)nc2c1 (stereo not given)	12.5 µg/mL (≈ 30 µM)
COc1cc(C2CC(c3ccc(Cl)cc3Cl)=NN2C(C)=O)cc(N)c1O (stereo not given)	12.5 µg/mL (≈ 31.7 µM)
CC(=O)N1N=C(c2ccccc2)CC1c1ccc(O)c(N)c1 (stereo not given)	1.25 µg/mL (≈ 4.23 µM)
COc1cc(C2CC(c3ccccc3)=NN2C(C)=O)cc(N)c1O (stereo not given)	25 µg/mL (≈ 76.8 µM)
COc1cc(C2CC(c3ccc(F)cc3)=NN2C(C)=O)cc2nc(S)oc12 (stereo not given)	12.5 µg/mL (≈ 32.4 µM)
COc1cc(C2CC(c3ccccc3)=NN2C(C)=O)cc2nc(N)oc12 (stereo not given)	0.625 µg/mL (≈ 1.78 µM)
COc1cc(C2CC(c3ccc(Cl)cc3Cl)=NN2C(C)=O)cc2nc(S)oc12 (stereo not given)	6.25 µg/mL (≈ 14.3 µM)
COc1cc(C2CC(c3ccccc3Br)=NN2C(C)=O)cc2nc(N)oc12 (stereo not given)	12.5 µg/mL (≈ 29.1 µM)
CC(=O)N1N=C(c2ccccc2Br)CC1c1ccc(O)c(N)c1 (stereo not given)	0.625 µg/mL (≈ 1.67 µM)
COc1cc(C2CC(c3ccc(F)cc3)=NN2C(C)=O)cc(N)c1O (stereo not given)	12.5 µg/mL (≈ 36.4 µM)
COc1cc(C2CC(c3ccc(Cl)cc3Cl)=NN2C(C)=O)cc2nc(N)oc12 (stereo not given)	12.5 µg/mL (≈ 29.8 µM)
CC(=O)N1N=C(c2ccccc2)CC1c1cc(N)c(O)c(Cl)c1 (stereo not given)	3.25 µg/mL (≈ 9.85 µM)
CC(=O)N1N=C(c2ccccc2Br)CC1c1cc(Cl)c2oc(S)nc2c1 (stereo not given)	6.25 µg/mL (≈ 13.9 µM)
CC(=O)N1N=C(c2ccccc2Br)CC1c1ccc2oc(N)nc2c1 (stereo not given)	25 µg/mL (≈ 62.6 µM)
CC(=O)N1N=C(c2ccccc2)CC1c1ccc2oc(S)nc2c1 (stereo not given)	25 µg/mL (≈ 74.1 µM)
COc1cc(C2CC(c3ccccc3Br)=NN2C(C)=O)cc2nc(S)oc12 (stereo not given)	12.5 µg/mL (≈ 28 µM)
CC(=O)N1N=C(c2ccccc2Br)CC1c1cc(Cl)c2oc(N)nc2c1 (stereo not given)	3.25 µg/mL (≈ 7.49 µM)
